The target in one data set is T1, D2 receptors (Chlorocebus aethiops, UniProt P52702).
T1 construct: expressed in transfected cells; host or cells: COS cells
Briefly: D2 receptor binding assay (3H-YM 09151-2 displacement). On the set-up: species or system African Green monkey. The method, then:
(§1) ASSAY FOR D2 AND D3 RECEPTOR BINDING ACTIVITY
(§2) Pellets of COS cells containing recombinantly produced D2 or D3 receptors from African Green monkey were used for the assays. The sample is homogenized in 100 volumes (w/vol) of 0.05 M Tris HCl buffer at 4° C. and pH 7.4. The sample is then centrifuged at 30,000×g and resuspended and rehomogenized. The sample is then centrifuged as described and the final tissue sample is frozen until use. The tissue is resuspended 1:20 (wt/vol) in 0.05 M Tris HCl buffer containing 100 mM NaCl.
(§3) Incubations are carried out at 48° C. and contain 0.4 ml of tissue sample, 0.5 nM ^3H-YM 09151-2 and the compound of interest in a total incubation of 1.0 ml. Nonspecific binding is defined as that binding found in the presence of […] spiperone; without further additions, nonspecific binding is less than 20% of total binding. The binding characteristics of representative compounds of the invention for D2 and D3 receptor subtypes are shown in Table 2 for rat striatal homogenates.

A further data set addresses T2, D3 receptors (Chlorocebus aethiops, UniProt P52703).
T2 construct: expressed in transfected cells; host or cells: COS cells
The data set can be described thus: D3 receptor binding assay (3H-YM 09151-2 displacement). On the set-up: species or system African Green monkey. As for the experimental part:
as §1, §2, §3

pKi: −log10 of the molar value. Structures can show the parent of a compound that is named as a salt. Where two headings read alike, the source gives them in different places.

T1 sequence (P52702 whole entry): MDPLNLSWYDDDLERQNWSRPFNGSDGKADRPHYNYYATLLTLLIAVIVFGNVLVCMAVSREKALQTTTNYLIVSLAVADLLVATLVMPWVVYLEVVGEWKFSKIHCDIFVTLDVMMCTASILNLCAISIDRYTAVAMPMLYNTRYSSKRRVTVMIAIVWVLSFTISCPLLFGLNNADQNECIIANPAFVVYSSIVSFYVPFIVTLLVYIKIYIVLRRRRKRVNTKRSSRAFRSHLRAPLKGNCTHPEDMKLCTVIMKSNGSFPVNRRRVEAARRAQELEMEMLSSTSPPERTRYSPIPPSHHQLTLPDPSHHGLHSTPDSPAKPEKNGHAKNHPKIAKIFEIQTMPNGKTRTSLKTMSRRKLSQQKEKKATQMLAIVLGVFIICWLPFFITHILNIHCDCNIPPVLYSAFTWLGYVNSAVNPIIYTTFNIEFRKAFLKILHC
T2 sequence (P52703 whole entry): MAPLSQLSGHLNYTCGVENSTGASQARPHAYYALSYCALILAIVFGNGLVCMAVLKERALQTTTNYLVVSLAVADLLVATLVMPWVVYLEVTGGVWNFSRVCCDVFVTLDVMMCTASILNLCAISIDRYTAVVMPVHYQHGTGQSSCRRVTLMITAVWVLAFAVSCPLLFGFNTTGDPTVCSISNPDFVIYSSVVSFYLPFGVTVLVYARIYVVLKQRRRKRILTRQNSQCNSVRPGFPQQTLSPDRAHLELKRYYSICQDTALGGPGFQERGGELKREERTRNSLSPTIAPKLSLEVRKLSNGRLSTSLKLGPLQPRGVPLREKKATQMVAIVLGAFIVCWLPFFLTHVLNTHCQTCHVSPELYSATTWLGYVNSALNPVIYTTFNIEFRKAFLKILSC

On to `O=C(NCCCCN1CCN(c2cccc3ccccc23)CC1)c1ccc2sc3ccccc3c2c1` (as salt: hydrochloride) [Compound 2, N-(1-{4-[4-(1-Naphthyl)piperazin-1-yl]}butyl)-2-dibenzothiophenecarboxamide hydrochloride], for which the melting point is 225 to 228 °C.

For the compound `O=C(NCCCCN1CCN(c2cccc(Cl)c2Cl)CC1)c1ccc2sc3ccccc3c2c1` [Compound 1, N-(1-{4-[4-(2,3-Dichlorophenyl)piperazin-1-yl]}butyl)-2-dibenzothiophenecarboxamide hydrochloride], the figures for the pKi on D2 receptors and on D3 receptors were 6.55 and 8.46, respectively.

As for `O=C(NCCCCN1CCN(c2cccc3ccccc23)CC1)c1ccc2sc3ccccc3c2c1` [Compound 2, N-(1-{4-[4-(1-Naphthyl)piperazin-1-yl]}butyl)-2-dibenzothiophenecarboxamide hydrochloride], the pKi is 6.62 at D2 receptors (COS cells containing recombinantly produced D2 receptors, 0.5 nM 3H-YM 09151-2, nonspecific binding with 1 mM spiperone, read-out: D2 Ki) and 8.30 on D3 receptors (COS cells containing recombinantly produced D3 receptors, 0.5 nM 3H-YM 09151-2, nonspecific binding with 1 mM spiperone, read-out: D3 Ki).

For the origin of these results see patent US6429312B2, “N-aminoalkyldibenzothiopencarboxamide receptor subtype specific ligands” (Neurogen Corporation, priority 1996, dated 2002).
